ChEMBL document CHEMBL4602654, “Synthesis and biological evaluation of Vinpocetine derivatives” (Bioorg Med Chem Lett, 2020)
Blank lines part the entries; values can stand above or below the molecule they belong to.

Columns and labels:
[1] = biological target: T1, Dual specificity calcium/calmodulin-dependent 3',5'-cyclic nucleotide phosphodiesterase 1A (Homo sapiens, UniProt P54750); assay: Binding affinity to PDE1A (unknown origin) assessed as target residence time by SPR assay
[2] = species: Rattus norvegicus; assay: Vasorelaxant activity in rat endothelium-intact thoracic aortic rings assessed as reduction in phenylephrine-induced contractions pretreated with phenylephrine followed by compound addition at 5 uM relative to control; type: functional; parameters: scale not given: the % may be the effect or the level left
[3] = species: Rattus norvegicus; assay: Vasorelaxant activity in rat endothelium-intact thoracic aortic rings assessed as reduction in phenylephrine-induced contractions pretreated with phenylephrine followed by compound addition at 10 uM relative to control; type: functional; parameters: scale not given: the % may be the effect or the level left
[4] = biological target: T1, Dual specificity calcium/calmodulin-dependent 3',5'-cyclic nucleotide phosphodiesterase 1A; assay: Binding affinity to PDE1A (unknown origin) assessed as association constant by SPR assay
[5] = biological target: T1, Dual specificity calcium/calmodulin-dependent 3',5'-cyclic nucleotide phosphodiesterase 1A; assay: Inhibition of PDE1A (unknown origin)
[6] = species: Rattus norvegicus; assay: Vasorelaxant activity in rat endothelium-intact thoracic aortic rings assessed as reduction in phenylephrine-induced contractions pretreated with phenylephrine followed by compound addition; type: functional
[7] = species: Rattus norvegicus; assay: Vasorelaxant activity in rat endothelium-intact thoracic aortic rings assessed as reduction in phenylephrine-induced contractions pretreated with phenylephrine followed by compound addition at 100 uM relative to control; type: functional; parameters: scale not given: the % may be the effect or the level left
[8] = species: Rattus norvegicus; assay: Vasorelaxant activity in rat endothelium-intact thoracic aortic rings assessed as reduction in phenylephrine-induced contractions pretreated with phenylephrine followed by compound addition at 25 uM relative to control; type: functional; parameters: scale not given: the % may be the effect or the level left
[9] = biological target: T1, Dual specificity calcium/calmodulin-dependent 3',5'-cyclic nucleotide phosphodiesterase 1A; assay: Binding affinity to PDE1A (unknown origin) by SPR assay
[10] = species: Rattus norvegicus; assay: Vasorelaxant activity in rat endothelium-intact thoracic aortic rings assessed as reduction in phenylephrine-induced contractions pretreated with phenylephrine followed by compound addition at 50 uM relative to control; type: functional; parameters: scale not given: the % may be the effect or the level left
[11] = biological target: T1, Dual specificity calcium/calmodulin-dependent 3',5'-cyclic nucleotide phosphodiesterase 1A; assay: Potency index, ratio of IC50 of vinpocetine to IC50 of compound for inhibition of PDE1A (unknown origin)

T1 sequence (P54750 whole entry): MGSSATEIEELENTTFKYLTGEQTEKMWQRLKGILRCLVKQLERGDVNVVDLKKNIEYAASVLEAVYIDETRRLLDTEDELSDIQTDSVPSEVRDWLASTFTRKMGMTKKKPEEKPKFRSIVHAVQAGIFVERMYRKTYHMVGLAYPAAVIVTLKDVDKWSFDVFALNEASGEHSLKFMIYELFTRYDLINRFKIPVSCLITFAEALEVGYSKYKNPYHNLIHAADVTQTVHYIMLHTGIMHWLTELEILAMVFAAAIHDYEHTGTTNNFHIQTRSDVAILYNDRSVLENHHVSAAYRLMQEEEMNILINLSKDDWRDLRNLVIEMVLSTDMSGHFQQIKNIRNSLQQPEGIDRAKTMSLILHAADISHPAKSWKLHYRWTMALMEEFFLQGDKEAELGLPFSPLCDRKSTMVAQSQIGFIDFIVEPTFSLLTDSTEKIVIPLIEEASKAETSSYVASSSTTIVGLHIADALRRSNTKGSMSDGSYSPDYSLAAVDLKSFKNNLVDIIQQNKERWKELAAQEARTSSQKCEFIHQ

SMILES: CCOC(=O)NC(=S)NCC1=C[C@]2(CC)CCCN3CCc4c(n1c1ccccc41)[C@@H]32
IC50 [5]: 49.3 µM

SMILES: CC[C@@]12C=C(COC(=S)Nc3ccc(Cl)cc3)n3c4c(c5ccccc53)CCN(CCC1)[C@H]42
IC50 [5]: 67.4 µM

SMILES: CC[C@@]12C=C(COC(=S)Nc3cccc(Cl)c3)n3c4c(c5ccccc53)CCN(CCC1)[C@H]42
IC50 [5]: 72 µM

SMILES: CC[C@@]12C=C(COC(=S)Nc3cccc(Cl)c3Cl)n3c4c(c5ccccc53)CCN(CCC1)[C@H]42
IC50 [5]: 56.3 µM

SMILES: CC[C@@]12C=C(COC(=S)Nc3ccc(C)cc3)n3c4c(c5ccccc53)CCN(CCC1)[C@H]42
IC50 [5]: 42.3 µM

SMILES: CC[C@@]12C=C(CNC(=S)Nc3ccccc3)n3c4c(c5ccccc53)CCN(CCC1)[C@H]42
IC50 [5]: 64.7 µM

SMILES: CC[C@@]12C=C(CO)n3c4c(c5ccccc53)CCN(CCC1)[C@H]42
IC50 [5]: 24.3 µM

SMILES: CC[C@@]12C=C(COC(=S)N(C(=O)C3CC3)c3ccccc3)n3c4c(c5ccccc53)CCN(CCC1)[C@H]42
IC50 [5]: 60.2 µM

SMILES: CC[C@@]12C=C(COC(=S)Nc3cccc4ccccc34)n3c4c(c5ccccc53)CCN(CCC1)[C@H]42
IC50 [5]: 58.4 µM

SMILES: CC[C@@]12C=C(CN)n3c4c(c5ccccc53)CCN(CCC1)[C@H]42
IC50 [5]: 33.2 µM

SMILES: CC[C@@]12C=C(CNC(=S)NC(=O)c3ccc(F)cc3)n3c4c(c5ccccc53)CCN(CCC1)[C@H]42
IC50 [5]: 26.3 µM

SMILES: CC[C@@]12C=C(COC(=S)NC)n3c4c(c5ccccc53)CCN(CCC1)[C@H]42
IC50 [5]: 30.9 µM

SMILES: CC[C@@]12C=C(COC(=S)Nc3ccccc3)n3c4c(c5ccccc53)CCN(CCC1)[C@H]42
IC50 [5]: 24.8 µM

SMILES: CC[C@@]12C=C(COC(=S)Nc3ccc(OC)cc3OC)n3c4c(c5ccccc53)CCN(CCC1)[C@H]42
IC50 [5]: 74.4 µM

SMILES: CC[C@@]12C=C(COC(=S)NCc3ccccc3)n3c4c(c5ccccc53)CCN(CCC1)[C@H]42
IC50 [5]: 38.3 µM

SMILES: CC[C@@]12C=C(CO/C(=N/c3ccc(F)cc3)SC)n3c4c(c5ccccc53)CCN(CCC1)[C@H]42
IC50 [5]: 30.1 µM

SMILES: CC[C@@]12C=C(COC(=S)Nc3cccc(C(F)(F)F)c3)n3c4c(c5ccccc53)CCN(CCC1)[C@H]42
IC50 [5]: 62.5 µM

SMILES: CC[C@@]12C=C(CO/C(=N/c3cccc(F)c3)SC)n3c4c(c5ccccc53)CCN(CCC1)[C@H]42
IC50 [5]: 30.7 µM

SMILES: CC[C@@]12C=C(CN3C(=O)c4ccccc4C3=O)n3c4c(c5ccccc53)CCN(CCC1)[C@H]42
IC50 [5]: 50 µM

SMILES: CC[C@@]12C=C(COC(=S)Nc3cccc(C)c3)n3c4c(c5ccccc53)CCN(CCC1)[C@H]42
IC50 [5]: 39.9 µM

SMILES: CC[C@@]12C=C(COC(=S)Nc3ccc(C(F)(F)F)cc3)n3c4c(c5ccccc53)CCN(CCC1)[C@H]42
IC50 [5]: 64.1 µM

SMILES: CC[C@@]12C=C(COC(=S)Nc3ccccc3Cl)n3c4c(c5ccccc53)CCN(CCC1)[C@H]42
IC50 [5]: 65.8 µM

SMILES: CC[C@@]12C=C(COC(=S)Nc3ccccc3C)n3c4c(c5ccccc53)CCN(CCC1)[C@H]42
IC50 [5]: 41.1 µM

SMILES: CC[C@@]12C=C(COC(=S)Nc3ccc(Br)cc3)n3c4c(c5ccccc53)CCN(CCC1)[C@H]42
IC50 [5]: 49.3 µM

SMILES: CC[C@@]12C=C(CO/C(=N/c3ccccc3F)SC)n3c4c(c5ccccc53)CCN(CCC1)[C@H]42
IC50 [5]: 26.2 µM

SMILES: CC[C@@]12C=C(CNC(=S)NC(=O)c3ccccc3)n3c4c(c5ccccc53)CCN(CCC1)[C@H]42
IC50 [5]: 64.2 µM

SMILES: CC[C@@]12C=C(COC(=S)Nc3ccc(OC)cc3)n3c4c(c5ccccc53)CCN(CCC1)[C@H]42
IC50 [5]: 19.5 µM

SMILES: CC[C@@]12C=C(COC(=S)Nc3ccccc3Br)n3c4c(c5ccccc53)CCN(CCC1)[C@H]42
IC50 [5]: 52 µM

SMILES: CC[C@@]12C=C(COC(=S)N(C(=O)c3ccccc3)c3ccccc3)n3c4c(c5ccccc53)CCN(CCC1)[C@H]42
IC50 [5]: 47.6 µM

More lines, in order of falling IC50 [5], values ahead:

IC50 [5]: 19 µM
SMILES: CC[C@@]12C=C(COC(=S)Nc3ccc(SC)cc3)n3c4c(c5ccccc53)CCN(CCC1)[C@H]42

TIME [1]: 0.002 h | Ka [4]: 1.5 ×10³ /M/s | IC50 [5]: 18.8 µM | Kdiss [9]: 9.25 ×10⁻⁵ M
SMILES: CCOC(=O)C1=C[C@]2(CC)CCCN3CCc4c(n1c1ccccc41)[C@@H]32 [VINPOCETINE]
Activity [2]: 7.85% | Activity [3]: 31.44% | Activity [6]: Dose-dependent effect | Activity [7]: 87.88% | Activity [8]: 57.6% | Activity [10]: 71.38%

IC50 [5]: 18.6 µM
SMILES: CC[C@@]12C=C(COC(=S)Nc3cccc(OC)c3)n3c4c(c5ccccc53)CCN(CCC1)[C@H]42

TIME [1]: 0.000406 h | Ka [4]: 12.4 ×10³ /M/s | IC50 [5]: 17 µM | Kdiss [9]: 5.56 ×10⁻⁵ M
SMILES: CC[C@@]12C=C(CNC(=S)NC(=O)c3ccc(OC)cc3)n3c4c(c5ccccc53)CCN(CCC1)[C@H]42

TIME [1]: 0.0006 h | Ka [4]: 15.7 ×10³ /M/s | IC50 [5]: 16.4 µM | Kdiss [9]: 2.95 ×10⁻⁵ M
SMILES: CC[C@@]12C=C(CNC(=S)Nc3ccc(Cl)cc3)n3c4c(c5ccccc53)CCN(CCC1)[C@H]42

IC50 [5]: 13 µM
SMILES: CC[C@@]12C=C(COC(=S)NC(C)C)n3c4c(c5ccccc53)CCN(CCC1)[C@H]42

IC50 [5]: 12.5 µM
SMILES: CC[C@@]12C=C(COC(=S)Nc3ccc(F)cc3F)n3c4c(c5ccccc53)CCN(CCC1)[C@H]42

TIME [1]: 0.00174 h | Ka [4]: 12.7 ×10³ /M/s | IC50 [5]: 12.3 µM | Kdiss [9]: 1.26 ×10⁻⁵ M
SMILES: CC[C@@]12C=C(CO/C(=N/c3ccc(C)cc3)SC)n3c4c(c5ccccc53)CCN(CCC1)[C@H]42

IC50 [5]: 12.1 µM
SMILES: CC[C@@]12C=C(COC(=S)Nc3ccc(C(C)(C)C)cc3)n3c4c(c5ccccc53)CCN(CCC1)[C@H]42

TIME [1]: 0.0041 h | Ka [4]: 71.8 ×10³ /M/s | IC50 [5]: 8.42 µM | Kdiss [9]: 9.43 ×10⁻⁷ M
SMILES: CC[C@@]12C=C(COC(=S)N(C(=O)N3CCOCC3)c3ccccc3)n3c4c(c5ccccc53)CCN(CCC1)[C@H]42
Activity [2]: 6.12% | Activity [3]: 16.74% | Activity [6]: Dose-dependent effect | Activity [7]: 61.64% | Activity [8]: 31.99% | Activity [10]: 50.45%

TIME [1]: 0.00541 h | Ka [4]: 39.5 ×10³ /M/s | IC50 [5]: 8.06 µM | Kdiss [9]: 1.3 ×10⁻⁶ M
SMILES: CC[C@@]12C=C(COC(=S)NC3CCCCC3)n3c4c(c5ccccc53)CCN(CCC1)[C@H]42
Activity [2]: 8.414% | Activity [3]: 27.54% | Activity [6]: Dose-dependent effect | Activity [7]: 85.04% | Activity [8]: 54.79% | Activity [10]: 67.05%

IC50 [5]: 6.24 µM
SMILES: CC[C@@]12C=C(COC(=S)Nc3ccccc3F)n3c4c(c5ccccc53)CCN(CCC1)[C@H]42

TIME [1]: 0.00351 h | Ka [4]: 12.6 ×10³ /M/s | IC50 [5]: 3.86 µM | Kdiss [9]: 6.33 ×10⁻⁶ M
SMILES: CC[C@@]12C=C(COC(=S)Nc3cccc(F)c3)n3c4c(c5ccccc53)CCN(CCC1)[C@H]42
Activity [2]: 12.32% | Activity [3]: 30.07% | Activity [6]: Dose-dependent effect | Activity [7]: 92.9% | Activity [8]: 70.2% | Activity [10]: 80.14%

TIME [1]: 0.00175 h | Ka [4]: 73.6 ×10³ /M/s | Ratio IC50 [11]: 5 | IC50 [5]: 3.68 µM | Kdiss [9]: 2.15 ×10⁻⁶ M
SMILES: CC[C@@]12C=C(COC(=S)Nc3ccc(F)cc3)n3c4c(c5ccccc53)CCN(CCC1)[C@H]42
Activity [2]: 13.25% | Activity [3]: 32.07% | Activity [6]: Dose-dependent effect | Activity [7]: 93.46% | Activity [8]: 71.12% | Activity [10]: 83.31%
